Data taken from US8802597B2, “Herbicidal pyrimidines” (E I du Pont de Nemours and Company, priority 2003, dated 2014).

Columns and labels:
Assay in all cases: Test C pre/postemergence
Assay type in all cases: in vivo
[1] = test system: woolly cupgrass (Eriochloa villosa); conditions: Postemergence
Method in brief: (§1)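 Injury scored visually 12–14 days after application on 0–100 scale (100 = complete control), relative to controls. Compounds, formulated with surfactant in non-phytotoxic solvent, applied to soil at planting (pre) or to 1- to 4-leaf plants 2–18 cm tall (post) in greenhouse.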

[2] = test system: Surinam grass (Brachiaria decumbens); conditions: Postemergence
Method in brief: as §1

[3] = test system: yellow nutsedge (Cyperus esculentus); conditions: Postemergence
Method in brief: as §1

[4] = test system: morningglory (Ipomoea coccinea); conditions: Postemergence
Method in brief: as §1

[5] = test system: soybean (Glycine max); conditions: Postemergence
Method in brief: as §1

[6] = test system: giant foxtail (Setaria faberii); conditions: Postemergence
Method in brief: as §1

[7] = test system: bermudagrass (Cynodon dactylon); conditions: Postemergence; for Bermudagrass plant response rating: scale 0 to 100 (0 no effect, 100 complete control)
Method in brief: as §1

[8] = test system: goosegrass (Eleusine indica); conditions: Postemergence
Method in brief: as §1

[9] = test system: common ragweed (Ambrosia elatior); conditions: Postemergence
Method in brief: as §1

[10] = test system: lambsquarters (Chenopodium album); conditions: Postemergence
Method in brief: as §1

[11] = test system: velvetleaf (Abutilon theophrasti); conditions: Postemergence
Method in brief: as §1

[12] = 125 g ai/ha, scale 0 to 100 (0 no effect, 100 complete control)

Nc1nc(-c2ccc(Br)cc2)nc(C(=O)O)c1Br [Compound 136]
Plant response rating (scale of 0 to 100), Cupgrass, Woolly ([1]; 16 g ai/ha): 55
Plant response rating (scale of 0 to 100), Cupgrass, Woolly ([1]; 31 g ai/ha): 65
Plant response rating (scale of 0 to 100), Cupgrass, Woolly ([1]; 62 g ai/ha): 70
Cupgrass, Woolly plant response rating [1, 12]: 70
Plant response rating (scale of 0 to 100), Surinam Grass ([2]; 16 g ai/ha): 55
Plant response rating (scale of 0 to 100), Surinam Grass ([2]; 31 g ai/ha): 65
Plant response rating (scale of 0 to 100), Surinam Grass ([2]; 62 g ai/ha): 65
Surinam Grass plant response rating [2, 12]: 70
Plant response rating (scale of 0 to 100), Nutsedge, Yellow ([3]; 16 g ai/ha): 60
Plant response rating (scale of 0 to 100), Nutsedge, Yellow ([3]; 31 g ai/ha): 65
Plant response rating (scale of 0 to 100), Nutsedge, Yellow ([3]; 62 g ai/ha): 75
Nutsedge, Yellow plant response rating [3, 12]: 75
Plant response rating (scale of 0 to 100), Morningglory ([4]; 16 g ai/ha): 65
Plant response rating (scale of 0 to 100), Morningglory ([4]; 31 g ai/ha): 85
Plant response rating (scale of 0 to 100), Morningglory ([4]; 62 g ai/ha): 90
Morningglory plant response rating [4, 12]: 100
Plant response rating (scale of 0 to 100), Soybean ([5]; 16 g ai/ha): 95
Plant response rating (scale of 0 to 100), Soybean ([5]; 31 g ai/ha): 100
Plant response rating (scale of 0 to 100), Soybean ([5]; 62 g ai/ha): 100
Soybean plant response rating [5, 12]: 100
Plant response rating (scale of 0 to 100), Foxtail, Giant ([6]; 16 g ai/ha): 65
Plant response rating (scale of 0 to 100), Foxtail, Giant ([6]; 31 g ai/ha): 75
Plant response rating (scale of 0 to 100), Foxtail, Giant ([6]; 62 g ai/ha): 75
Foxtail, Giant plant response rating [6, 12]: 85
Plant response rating (scale of 0 to 100), Bermudagrass ([7]; 16 g ai/ha): 75
Plant response rating (scale of 0 to 100), Bermudagrass ([7]; 31 g ai/ha): 80
Bermudagrass plant response rating ([7]; 62 g ai/ha): 80
Bermudagrass plant response rating ([7]; 125 g ai/ha): 85
Plant response rating (scale of 0 to 100), Goosegrass ([8]; 16 g ai/ha): 50
Plant response rating (scale of 0 to 100), Goosegrass ([8]; 31 g ai/ha): 65
Plant response rating (scale of 0 to 100), Goosegrass ([8]; 62 g ai/ha): 75
Goosegrass plant response rating [8, 12]: 80
Plant response rating (scale of 0 to 100), Ragweed ([9]; 16 g ai/ha): 75
Plant response rating (scale of 0 to 100), Ragweed ([9]; 31 g ai/ha): 85
Plant response rating (scale of 0 to 100), Ragweed ([9]; 62 g ai/ha): 90
Ragweed plant response rating [9, 12]: 95
Plant response rating (scale of 0 to 100), Lambsquarters ([10]; 16 g ai/ha): 95
Plant response rating (scale of 0 to 100), Lambsquarters ([10]; 31 g ai/ha): 95
Plant response rating (scale of 0 to 100), Lambsquarters ([10]; 62 g ai/ha): 95
Lambsquarters plant response rating [10, 12]: 95
Plant response rating (scale of 0 to 100), Velvetleaf ([11]; 16 g ai/ha): 85
Plant response rating (scale of 0 to 100), Velvetleaf ([11]; 31 g ai/ha): 85
Plant response rating (scale of 0 to 100), Velvetleaf ([11]; 62 g ai/ha): 90
Velvetleaf plant response rating [11, 12]: 95
